Legend:
Format in all cases: functional
HCT-116 = assay: Growth inhibition of human HCT-116 cells assessed as cell growth at 0.01 uM incubated for 48 hrs by sulforhodamine B assay relative to control; conditions: read-out: Activity
SF-295 = assay: Growth inhibition of human SF-295 cells assessed as cell growth at 0.01 uM incubated for 48 hrs by sulforhodamine B assay relative to control; conditions: read-out: Activity
NCI/ADR-RES [1] = assay: Growth inhibition of human NCI/ADR-RES cells assessed as cell growth at 0.01 uM incubated for 48 hrs by sulforhodamine B assay relative to control; conditions: read-out: Activity
ACHN = assay: Growth inhibition of human ACHN cells assessed as cell growth at 0.01 uM incubated for 48 hrs by sulforhodamine B assay relative to control; conditions: read-out: Activity
HL-60(TB) = assay: Growth inhibition of human HL-60(TB) cells assessed as cell growth at 0.1 uM incubated for 48 hrs by sulforhodamine B assay relative to control; conditions: read-out: Activity
K562 = assay: Growth inhibition of human K562 cells assessed as cell growth at 0.1 uM incubated for 48 hrs by sulforhodamine B assay relative to control; conditions: read-out: Activity
A549 = assay: Growth inhibition of human A549/ATCC cells assessed as cell growth at 0.1 uM incubated for 48 hrs by sulforhodamine B assay relative to control; conditions: read-out: Activity
HOP-62 = assay: Growth inhibition of human HOP-62 cells assessed as cell growth at 0.1 uM incubated for 48 hrs by sulforhodamine B assay relative to control; conditions: read-out: Activity
NCI-H460 [2] = assay: Growth inhibition of human NCI-H460 cells assessed as cell growth at 0.1 uM incubated for 48 hrs by sulforhodamine B assay relative to control; conditions: read-out: Activity
NCI-H522 = assay: Growth inhibition of human NCI-H522 cells assessed as cell growth at 0.1 uM incubated for 48 hrs by sulforhodamine B assay relative to control; conditions: read-out: Activity
SW-620 = assay: Growth inhibition of human SW-620 cells assessed as cell growth at 0.1 uM incubated for 48 hrs by sulforhodamine B assay relative to control; conditions: read-out: Activity
OVCAR-3 = assay: Growth inhibition of human OVCAR-3 cells assessed as cell growth at 0.1 uM incubated for 48 hrs by sulforhodamine B assay relative to control; conditions: read-out: Activity
A498 [3] = assay: Growth inhibition of human A498 cells assessed as cell growth at 0.1 uM incubated for 48 hrs by sulforhodamine B assay relative to control; conditions: read-out: Activity
CAKI-1 = assay: Growth inhibition of human CAKI-1 cells assessed as cell growth at 0.1 uM incubated for 48 hrs by sulforhodamine B assay relative to control; conditions: read-out: Activity
RXF 393 = assay: Growth inhibition of human RXF 393 cells assessed as cell growth at 0.1 uM incubated for 48 hrs by sulforhodamine B assay relative to control; conditions: read-out: Activity
SN12C = assay: Growth inhibition of human SN12C cells assessed as cell growth at 0.1 uM incubated for 48 hrs by sulforhodamine B assay relative to control; conditions: read-out: Activity
T47D = assay: Growth inhibition of human T47D cells assessed as cell growth at 0.1 uM incubated for 48 hrs by sulforhodamine B assay relative to control; conditions: read-out: Activity
RPMI-8226 [4] = assay: Growth inhibition of human RPMI-8226 cells assessed as cell growth at 1 uM incubated for 48 hrs by sulforhodamine B assay relative to control; conditions: read-out: Activity
SK-MEL-28 = assay: Growth inhibition of human SK-MEL-28 cells assessed as cell growth at 1 uM incubated for 48 hrs by sulforhodamine B assay relative to control; conditions: read-out: Activity
UACC-62 = assay: Growth inhibition of human UACC-62 cells assessed as cell growth at 1 uM incubated for 48 hrs by sulforhodamine B assay relative to control; conditions: read-out: Activity
MDA-MB-468 [5] = assay: Growth inhibition of human MDA-MB-468 cells assessed as cell growth at 1 uM incubated for 48 hrs by sulforhodamine B assay relative to control; conditions: read-out: Activity
NCI-H460 [6] = assay: Growth inhibition of human NCI-H460 cells assessed as cell growth at 100 uM incubated for 48 hrs by sulforhodamine B assay relative to control; conditions: read-out: Activity
HT-29 = assay: Growth inhibition of human HT-29 cells assessed as cell growth at 100 uM incubated for 48 hrs by sulforhodamine B assay relative to control; conditions: read-out: Activity
SF-268 = assay: Growth inhibition of human SF-268 cells assessed as cell growth at 100 uM incubated for 48 hrs by sulforhodamine B assay relative to control; conditions: read-out: Activity
SK-OV-3 = assay: Growth inhibition of human SK-OV-3 cells assessed as cell growth at 100 uM incubated for 48 hrs by sulforhodamine B assay relative to control; conditions: read-out: Activity
786-0 = assay: Growth inhibition of human 786-0 cells assessed as cell growth at 100 uM incubated for 48 hrs by sulforhodamine B assay relative to control; conditions: read-out: Activity
A498 [7] = assay: Growth inhibition of human A498 cells assessed as cell growth at 100 uM incubated for 48 hrs by sulforhodamine B assay relative to control; conditions: read-out: Activity
MOLT-4 = assay: Growth inhibition of human MOLT-4 cells incubated for 48 hrs by sulforhodamine B assay
RPMI-8226 [8] = assay: Growth inhibition of human RPMI-8226 cells incubated for 48 hrs by sulforhodamine B assay
UACC-257 = assay: Growth inhibition of human UACC-257 cells incubated for 48 hrs by sulforhodamine B assay
OVCAR-8 = assay: Growth inhibition of human OVCAR-8 cells incubated for 48 hrs by sulforhodamine B assay
NCI/ADR-RES [9] = assay: Growth inhibition of human NCI/ADR-RES cells incubated for 48 hrs by sulforhodamine B assay
MDA-MB-231 = assay: Growth inhibition of human MDA-MB-231 cells incubated for 48 hrs by sulforhodamine B assay
MDA-MB-468 [10] = assay: Growth inhibition of human MDA-MB-468 cells incubated for 48 hrs by sulforhodamine B assay
[11] = read-out: LC50 (the source's name)
[12] = read-out: pLC50 (the source's name) (converted)

CC(=O)Nc1cc(CO[Si](C)(C)C(C)(C)C)cc(NC(=O)c2ccc(C(=O)Nc3cccc(NC(=O)CCCN(C)C)c3)cc2)c1 was tested, and the growth at 0.01 µM (HCT-116) was 104%, the growth at 0.01 µM (SF-295) was 98% and the growth at 0.01 µM (NCI/ADR-RES [1]) was 103%. For the same compound, the growth at 0.01 µM (ACHN) was 100%, the growth at 0.1 µM (HL-60(TB)) was 97% and the growth at 0.1 µM (K562) was 96%. The growth at 0.1 µM (A549) was 99%, the growth at 0.1 µM (HOP-62) was 98% and the growth at 0.1 µM (NCI-H460 [2]) was 99%. For the same compound, the growth at 0.1 µM (NCI-H522) was 91%, the growth at 0.1 µM (SW-620) was 100% and the growth at 0.1 µM (OVCAR-3) was 109%. The growth at 0.1 µM (A498 [3]) was 62%, the growth at 0.1 µM (CAKI-1) was 91% and the growth at 0.1 µM (RXF 393) was 102%. The growth at 0.1 µM (SN12C) was 95%, the growth at 0.1 µM (T47D) was 97% and the growth at 1 µM (RPMI-8226 [4]) was 110%. The growth at 1 µM (SK-MEL-28) was 98%, the growth at 1 µM (UACC-62) was 99% and the growth at 1 µM (MDA-MB-468 [5]) was 90%. It also gave a growth at 100 µM (NCI-H460 [6]) of 89%, a growth at 100 µM (HT-29) of 100% and a growth at 100 µM (SF-268) of 82%. The growth at 100 µM (SK-OV-3) was 93%, the growth at 100 µM (786-0) was 88% and the growth at 100 µM (A498 [7]) was 51%. It also gave a GI50 (MOLT-4; read-out: GI50) of over 75 µM, a CC50 (MOLT-4; [11]) of over 75 µM and a TGI (MOLT-4; read-out: TGI) of over 75 µM. The GI50 (MOLT-4; read-out: pGI50 (converted)) was over 75.9 µM, the CC50 (MOLT-4; [12]) was over 75.9 µM and the TGI (MOLT-4; read-out: pTGI) was over 75.9 µM. For the same compound, the GI50 (RPMI-8226 [8]; read-out: GI50) was over 75 µM, the CC50 (RPMI-8226 [8]; [11]) was over 75 µM and the TGI (RPMI-8226 [8]; read-out: TGI) was over 75 µM. The GI50 (RPMI-8226 [8]; read-out: pGI50 (converted)) was over 75.9 µM, the CC50 (RPMI-8226 [8]; [12]) was over 75.9 µM and the TGI (RPMI-8226 [8]; read-out: pTGI) was over 75.9 µM. It also gave a GI50 (UACC-257; read-out: GI50) of over 75 µM, an LC50 (UACC-257; read-out: LC50) of over 75 µM and a TGI (UACC-257; read-out: TGI) of over 75 µM. For the same compound, the GI50 (UACC-257; read-out: pGI50 (converted)) was over 75.9 µM, the LC50 (UACC-257; read-out: pLC50 (converted)) was over 75.9 µM and the TGI (UACC-257; read-out: pTGI) was over 75.9 µM. The GI50 (OVCAR-8; read-out: GI50) was over 75 µM, the CC50 (OVCAR-8; [11]) was over 75 µM and the TGI (OVCAR-8; read-out: TGI) was over 75 µM. The GI50 (OVCAR-8; read-out: pGI50 (converted)) was over 75.9 µM, the CC50 (OVCAR-8; [12]) was over 75.9 µM and the TGI (OVCAR-8; read-out: pTGI) was over 75.9 µM. The GI50 (NCI/ADR-RES [9]; read-out: GI50) was over 75 µM, the CC50 (NCI/ADR-RES [9]; [11]) was over 75 µM and the TGI (NCI/ADR-RES [9]; read-out: TGI) was over 75 µM. For the same compound, the GI50 (NCI/ADR-RES [9]; read-out: pGI50 (converted)) was over 75.9 µM, the CC50 (NCI/ADR-RES [9]; [12]) was over 75.9 µM and the TGI (NCI/ADR-RES [9]; read-out: pTGI) was over 75.9 µM. It also gave a GI50 (MDA-MB-231; read-out: GI50) of over 75 µM, a CC50 (MDA-MB-231; [11]) of over 75 µM and a TGI (MDA-MB-231; read-out: TGI) of over 75 µM. For the same compound, the GI50 (MDA-MB-231; read-out: pGI50 (converted)) was over 75.9 µM, the CC50 (MDA-MB-231; [12]) was over 75.9 µM and the TGI (MDA-MB-231; read-out: pTGI) was over 75.9 µM. For the same compound, the GI50 (MDA-MB-468 [10]; read-out: GI50) was over 75 µM, the CC50 (MDA-MB-468 [10]; [11]) was over 75 µM and the TGI (MDA-MB-468 [10]; read-out: TGI) was over 75 µM. It also gave a GI50 (MDA-MB-468 [10]; read-out: pGI50 (converted)) of over 75.9 µM, a CC50 (MDA-MB-468 [10]; [12]) of over 75.9 µM and a TGI (MDA-MB-468 [10]; read-out: pTGI) of over 75.9 µM.

Reference: ChEMBL document CHEMBL4715697, “Synthesis and biological activity of benzamide DNA minor groove binders” (2016)
